The NIST ThermoML archive (doi:10.1016/j.jct.2016.06.016)

Assay: xn = mol fraction of the nth substance listed
Details: 100 kPa, Liquid; for viscosity: Concentric cylinders viscometry; for mass density: Vibrating tube method

CCOC(=O)CCC(=O)OCC [diethyl butanedioate] + CCCCCCO
Details | mass density [kg/m3] | viscosity [mPa·s]
288.15 K, x1 = 0.0999 | 849.53 | 4.539
288.15 K, x1 = 0.2 | 875.7 | 3.729
288.15 K, x1 = 0.3001 | 900.45 | 3.285
288.15 K, x1 = 0.4 | 923.97 | 3.019
288.15 K, x1 = 0.4999 | 946.39 | 2.869
288.15 K, x1 = 0.6 | 967.72 | 2.789
288.15 K, x1 = 0.7002 | 988.27 | 2.788
288.15 K, x1 = 0.7999 | 1007.86 | 2.856
288.15 K, x1 = 0.9 | 1026.75 | 2.954
288.15 K, x1 = 1 | 1044.83 | 3.195
293.15 K, x1 = 0.0999 | 845.73 | 3.876
293.15 K, x1 = 0.2 | 871.67 | 3.213
293.15 K, x1 = 0.3001 | 896.23 | 2.842
293.15 K, x1 = 0.4 | 919.56 | 2.62
293.15 K, x1 = 0.4999 | 941.82 | 2.495
293.15 K, x1 = 0.6 | 963 | 2.432
293.15 K, x1 = 0.7002 | 983.42 | 2.435
293.15 K, x1 = 0.7999 | 1002.88 | 2.495
293.15 K, x1 = 0.9 | 1021.66 | 2.61
293.15 K, x1 = 1 | 1039.63 | 2.807
298.15 K, x1 = 0.0999 | 841.91 | 3.358
298.15 K, x1 = 0.2 | 867.63 | 2.817
298.15 K, x1 = 0.3001 | 891.99 | 2.508
298.15 K, x1 = 0.4 | 915.15 | 2.327
298.15 K, x1 = 0.4999 | 937.24 | 2.231
298.15 K, x1 = 0.6 | 958.28 | 2.18
298.15 K, x1 = 0.7002 | 978.57 | 2.188
298.15 K, x1 = 0.7999 | 997.91 | 2.24
298.15 K, x1 = 0.9 | 1016.57 | 2.337
298.15 K, x1 = 1 | 1034.44 | 2.491
303.15 K, x1 = 0.0999 | 838.07 | 2.932
303.15 K, x1 = 0.2 | 863.58 | 2.477
303.15 K, x1 = 0.3001 | 887.75 | 2.222
303.15 K, x1 = 0.4 | 910.73 | 2.071
303.15 K, x1 = 0.4999 | 932.67 | 1.99
303.15 K, x1 = 0.6 | 953.56 | 1.952
303.15 K, x1 = 0.7002 | 973.72 | 1.962
303.15 K, x1 = 0.7999 | 992.94 | 2.01
303.15 K, x1 = 0.9 | 1011.5 | 2.098
303.15 K, x1 = 1 | 1029.25 | 2.229
308.15 K, x1 = 0.0999 | 834.22 | 2.572
308.15 K, x1 = 0.2 | 859.52 | 2.193
308.15 K, x1 = 0.3001 | 883.49 | 1.98
308.15 K, x1 = 0.4 | 906.3 | 1.854
308.15 K, x1 = 0.4999 | 928.09 | 1.788
308.15 K, x1 = 0.6 | 948.84 | 1.759
308.15 K, x1 = 0.7002 | 968.87 | 1.77
308.15 K, x1 = 0.7999 | 987.97 | 1.816
308.15 K, x1 = 0.9 | 1006.42 | 1.893
308.15 K, x1 = 1 | 1024.08 | 2.008
313.15 K, x1 = 0.0999 | 830.34 | 2.276
313.15 K, x1 = 0.2 | 855.43 | 1.961
313.15 K, x1 = 0.3001 | 879.22 | 1.783
313.15 K, x1 = 0.4 | 901.87 | 1.679
313.15 K, x1 = 0.4999 | 923.5 | 1.626
313.15 K, x1 = 0.6 | 944.11 | 1.604
313.15 K, x1 = 0.7002 | 964.01 | 1.617
313.15 K, x1 = 0.7999 | 983 | 1.659
313.15 K, x1 = 0.9 | 1001.34 | 1.729
313.15 K, x1 = 1 | 1018.9 | 1.821
318.15 K, x1 = 0.0999 | 826.44 | 2.013
318.15 K, x1 = 0.2 | 851.33 | 1.748
318.15 K, x1 = 0.3001 | 874.93 | 1.598
318.15 K, x1 = 0.4 | 897.41 | 1.511
318.15 K, x1 = 0.4999 | 918.89 | 1.468
318.15 K, x1 = 0.6 | 939.37 | 1.452
318.15 K, x1 = 0.7002 | 959.15 | 1.467
318.15 K, x1 = 0.7999 | 978.02 | 1.506
318.15 K, x1 = 0.9 | 996.26 | 1.57
318.15 K, x1 = 1 | 1013.72 | 1.66
323.15 K, x1 = 0.0999 | 822.52 | 1.817
323.15 K, x1 = 0.2 | 847.2 | 1.584
323.15 K, x1 = 0.3001 | 870.62 | 1.458
323.15 K, x1 = 0.4 | 892.94 | 1.386
323.15 K, x1 = 0.4999 | 914.27 | 1.344
323.15 K, x1 = 0.6 | 934.62 | 1.337
323.15 K, x1 = 0.7002 | 954.28 | 1.353
323.15 K, x1 = 0.7999 | 973.05 | 1.391
323.15 K, x1 = 0.9 | 991.18 | 1.448
323.15 K, x1 = 1 | 1008.55 | 1.523

CCOC(=O)CCC(=O)OCC [diethyl butanedioate] + CCCCO
Details | mass density [kg/m3] | viscosity [mPa·s]
288.15 K, x1 = 0.1 | 851.32 | 2.665
288.15 K, x1 = 0.2001 | 884.48 | 2.382
288.15 K, x1 = 0.3 | 913.45 | 2.302
288.15 K, x1 = 0.3999 | 938.87 | 2.306
288.15 K, x1 = 0.5 | 961.37 | 2.342
288.15 K, x1 = 0.6001 | 981.44 | 2.405
288.15 K, x1 = 0.6998 | 999.46 | 2.515
288.15 K, x1 = 0.7999 | 1015.94 | 2.692
288.15 K, x1 = 0.8997 | 1031 | 2.934
288.15 K, x1 = 1 | 1044.83 | 3.195
293.15 K, x1 = 0.1 | 847.26 | 2.339
293.15 K, x1 = 0.2001 | 880.14 | 2.106
293.15 K, x1 = 0.3 | 908.86 | 2.041
293.15 K, x1 = 0.3999 | 934.12 | 2.045
293.15 K, x1 = 0.5 | 956.51 | 2.077
293.15 K, x1 = 0.6001 | 976.5 | 2.133
293.15 K, x1 = 0.6998 | 994.45 | 2.228
293.15 K, x1 = 0.7999 | 1010.87 | 2.38
293.15 K, x1 = 0.8997 | 1025.85 | 2.585
293.15 K, x1 = 1 | 1039.63 | 2.807
298.15 K, x1 = 0.1 | 843.14 | 2.072
298.15 K, x1 = 0.2001 | 875.78 | 1.877
298.15 K, x1 = 0.3 | 904.32 | 1.825
298.15 K, x1 = 0.3999 | 929.42 | 1.831
298.15 K, x1 = 0.5 | 951.69 | 1.861
298.15 K, x1 = 0.6001 | 971.57 | 1.914
298.15 K, x1 = 0.6998 | 989.44 | 2.003
298.15 K, x1 = 0.7999 | 1005.79 | 2.141
298.15 K, x1 = 0.8997 | 1020.71 | 2.318
298.15 K, x1 = 1 | 1034.44 | 2.491
303.15 K, x1 = 0.1 | 838.99 | 1.845
303.15 K, x1 = 0.2001 | 871.41 | 1.682
303.15 K, x1 = 0.3 | 899.78 | 1.64
303.15 K, x1 = 0.3999 | 924.74 | 1.649
303.15 K, x1 = 0.5 | 946.87 | 1.678
303.15 K, x1 = 0.6001 | 966.65 | 1.727
303.15 K, x1 = 0.6998 | 984.43 | 1.806
303.15 K, x1 = 0.7999 | 1000.71 | 1.925
303.15 K, x1 = 0.8997 | 1015.58 | 2.078
303.15 K, x1 = 1 | 1029.25 | 2.229
308.15 K, x1 = 0.1 | 834.83 | 1.65
308.15 K, x1 = 0.2001 | 867.03 | 1.515
308.15 K, x1 = 0.3 | 895.21 | 1.482
308.15 K, x1 = 0.3999 | 920.02 | 1.492
308.15 K, x1 = 0.5 | 942.04 | 1.52
308.15 K, x1 = 0.6001 | 961.72 | 1.564
308.15 K, x1 = 0.6998 | 979.42 | 1.635
308.15 K, x1 = 0.7999 | 995.63 | 1.741
308.15 K, x1 = 0.8997 | 1010.45 | 1.876
308.15 K, x1 = 1 | 1024.08 | 2.008
313.15 K, x1 = 0.1 | 830.64 | 1.49
313.15 K, x1 = 0.2001 | 862.62 | 1.379
313.15 K, x1 = 0.3 | 890.63 | 1.355
313.15 K, x1 = 0.3999 | 915.3 | 1.366
313.15 K, x1 = 0.5 | 937.2 | 1.394
313.15 K, x1 = 0.6001 | 956.78 | 1.437
313.15 K, x1 = 0.6998 | 974.41 | 1.502
313.15 K, x1 = 0.7999 | 990.55 | 1.596
313.15 K, x1 = 0.8997 | 1005.31 | 1.712
313.15 K, x1 = 1 | 1018.9 | 1.821
318.15 K, x1 = 0.1 | 826.42 | 1.337
318.15 K, x1 = 0.2001 | 858.18 | 1.245
318.15 K, x1 = 0.3 | 886.02 | 1.226
318.15 K, x1 = 0.3999 | 910.54 | 1.239
318.15 K, x1 = 0.5 | 932.33 | 1.266
318.15 K, x1 = 0.6001 | 951.83 | 1.307
318.15 K, x1 = 0.6998 | 969.38 | 1.367
318.15 K, x1 = 0.7999 | 985.47 | 1.451
318.15 K, x1 = 0.8997 | 1000.18 | 1.556
318.15 K, x1 = 1 | 1013.72 | 1.66
323.15 K, x1 = 0.1 | 822.17 | 1.218
323.15 K, x1 = 0.2001 | 853.72 | 1.142
323.15 K, x1 = 0.3 | 881.38 | 1.129
323.15 K, x1 = 0.3999 | 905.78 | 1.143
323.15 K, x1 = 0.5 | 927.46 | 1.169
323.15 K, x1 = 0.6001 | 946.87 | 1.208
323.15 K, x1 = 0.6998 | 964.35 | 1.264
323.15 K, x1 = 0.7999 | 980.38 | 1.342
323.15 K, x1 = 0.8997 | 995.05 | 1.435
323.15 K, x1 = 1 | 1008.55 | 1.523
